Consider 25 compounds from patent US4760062A, “Pharmaceutical compositions of N-heterocyclic benzenesulfonamides and their use” (DROPIC, Societe Civile de gestion de droits de Propriete …, priority 1983, dated 1988).

The test system of series [1] is mice. The series is described as follows: 4 plates test (suppressive conditioning), 25 mg/kg orally, increase in punished passages with respect to control. The format is in vivo, Swiss male mice. Particulars: Mus musculus, po, 1 h, male mice, 25 mg/kg single oral dose, 60 minutes before the test; read-out: % increase in the number of punished passages with respect to the control batch. The text has this: The method is based on the attenuation or suppression of the anxiety state induced by electric shocks on movement of the animals (mice) into a special enclosure.
The anxiolytic effect is manifested by an increase in movements at doses not affecting motility.
For each dose, the groups are of 15 animals which have not undergone the test.
The apparatus was of the Apelex type.
It is composed of a parallelepipedic box of white plastic material, provided with a lid of transparent plexiglas, mobile by means of two hinges. The floor, which is rectangular, is constituted by four plates of conductive metal of which the distance between one another and the walls of the box is of 0.5 cm.
These plates are connected to an Apelex impulse generator. The potential difference when there is no impulse is, nil between two plates on a diagonal and is of 180 Volts between two adjacent plates. A trigger enables that a constant electrical current pulse be sent (of 0 to 2 milliamperes) for a selected time (from 0.1 to 5 seconds).
The operation is carried out in a silent area at constant temperature, the experimenter overlooking the box so that he can follow all the movements of the mice placed on one of the plates.
For each animal, the experiment is carried out according to the following modalities:
preliminary exploration of 15 seconds, without electric shock;
punished exploration (electric shock for each movement between two ajdacent plates) for 60 seconds.
The electric shocks have a duration of 0.5 seconds and an intensity of 0.6 milliampere.
The controls receive only carboxymethylcellulose.
The results are expressed as percentage of increase in the number of punished passages with respect to the control batch (increase percentage).

Series [2] in a line: Acute toxicity (LD0, LD50, LD100). The conditions noted are these: mouse, in vivo.
For series [3], the system named is mice. The series is described as follows: Acute toxicity (LD0, LD50, LD100). The conditions noted are these: for ratio between the effective dose and the toxicity: mouse, in vivo.
The subject of series [4] is mice. Particulars: mouse, in vivo.

Where two headings read alike, the source gives them in different places.

As to `O=S(=O)(c1cccc(C(F)(F)F)c1)N1CCN(CCO)CC1` [Compound 1505], in the series with mice [1], the change in vivo at 25 mg/kg was 35%.
Usually LD50 stands for the dose expected to kill half of the subjects tested. Turning to `COc1cc(OC)c(S(=O)(=O)N2CCN(CC(O)CO)CC2)cc1Cl` (centres unmarked) [Compound 1295], the LD50 in series [2] (ip) was 820 mg/kg. For the same compound, in the series with mice [3] (mice, route IP), the LD0 was 600 mg/kg and the LD100 is given as 1 000 mg/kg. In addition, the “ratio between the effective dose and the toxicity” value in the series with mice [3] is reported as “satisfactory”.
On to `O=C(c1ccccc1)N1CCCN(S(=O)(=O)c2ccc(Cl)c(C(F)(F)F)c2)CC1` [Compound 1393], for which, in the series with mice [4], the “ratio between the effective dose and the toxicity” value was “satisfactory”. The LD0 in the series with mice [3] (by oral route) was > 2 000 mg/kg.
Consider `COc1cc(OC)c(S(=O)(=O)N2CCN(CCO)CC2)cc1S(C)(=O)=O` [Compound 1294], for which the change in vivo at 25 mg/kg in the series on mice [1] stood at 17%.
Still for that read-out and setting: with `O=S(=O)(c1cc(C(F)(F)F)cc(C(F)(F)F)c1)N1CCCN(CC(O)CO)CC1` (centres unmarked) [Compound 1488, 4-(2.3-dihydroxypropyl)1-[(3,5-ditrifluoromethyl)benzenesulfonyl]homopiperazine] the figure was 10%; with `O=C(c1ccco1)N1CCCN(S(=O)(=O)c2ccc(Cl)c(C(F)(F)F)c2)CC1` [Compound 1405], 14%.
As to `O=C(c1ccccc1)N1CCN(S(=O)(=O)c2cccc(C(F)(F)F)c2)CC1` [Compound 1502], in the series with mice [1], the change in vivo at 25 mg/kg worked out at 20%.
In the case of `COc1cc(OC)c(S(=O)(=O)N2CCN(Cc3ccccc3)CC2)cc1S(C)(=O)=O` [Compound 1213], in the series on mice [1], the change in vivo at 25 mg/kg is 13%.
As to `O=S(=O)(c1cc(C(F)(F)F)cc(C(F)(F)F)c1)N1CCCNCC1` [Compound 1408], the change in vivo at 25 mg/kg in the series on mice [1] turned out to be 22%.
The same measure, in the same setting: the result for `O=S(=O)(c1cccc(C(F)(F)F)c1)N1CCN(CCCO)CC1` [Compound 1500] reads 25%.
With `COc1cc(N)c(Cl)cc1S(=O)(=O)N1CCN(C)CC1` [Compound 1427, 1'1-[(4-amino 5-chloro 2-methoxy)benzenesulfonyl]4-methyl piperazine], in the series with mice [4], the “ratio between the effective dose and the toxicity” value is “satisfactory”. In series [2], the LD50 was approximately 800 mg/kg. The LD0 with mice [3] (route not given) is on record as approximately 500 mg/kg.
In the case of `COc1ccc(Br)cc1S(=O)(=O)N1CCN(c2ccc(F)cc2)CC1` [Compound 1299], the change in vivo at 25 mg/kg in the series on mice [1] was 28%.
Take `COc1cc([N+](=O)[O-])c(Cl)cc1S(=O)(=O)N1CCN(C)CC1` [Compound 1292]: the LD50 in series [2] (ip) came out at 650 mg/kg. For the same compound, in the series on mice [3] (mice, route IP), the LD0 was determined as 400 mg/kg and the LD100 is recorded as 1 000 mg/kg. In addition, the “ratio between the effective dose and the toxicity” value with mice [3] is listed as “satisfactory”.
As to `COc1cc(OC)c(S(=O)(=O)N2CCNCC2)cc1OC` [Compound 1243], the “ratio between the effective dose and the toxicity” value with mice [4] is recorded as “satisfactory”. The LD50 in series [2] (iv) was 200 mg/kg. In the series on mice [3] (mice, route IV), the LD0 stood at 200 mg/kg and the LD100 came to 325 mg/kg. For the same compound, in the series on mice [1], the change in vivo at 25 mg/kg is 18%.
With `O=C(N1CCN(S(=O)(=O)c2cccc(C(F)(F)F)c2)CC1)C12CC3CC(CC(C3)C1)C2` [Compound 1503], the change in vivo at 25 mg/kg in the series on mice [1] turned out to be 28%.
Turning to `COc1cc(OC)c(S(=O)(=O)N2CCN(c3ccc(F)cc3)CC2)cc1S(C)(=O)=O` [Compound 1298], the “ratio between the effective dose and the toxicity” value in the series with mice [4] was “satisfactory”. In addition, the LD50 in series [2] (ip) was more than 2000 mg/kg. Moreover, in the series with mice [3] (mice, route IP), the LD0 is > 2 000 mg/kg and the LD100 was > 2 000 mg/kg.
Regarding `COc1cc([N+](=O)[O-])c(Cl)cc1S(=O)(=O)N1CCN(CCO)CC1` [Compound 1290], the change in vivo at 25 mg/kg in the series on mice [1] is 17%.
On to `COc1cc(OC)c(S(=O)(=O)N2CCN(C)CC2)cc1OC` [Compound 1260], for which the change in vivo at 25 mg/kg with mice [1] is 31%.
Take `O=C(N1CCN(S(=O)(=O)c2ccc(Cl)c(C(F)(F)F)c2)CC1)C12CC3CC(CC(C3)C1)C2` [Compound 1406]: in the series with mice [1], the change in vivo at 25 mg/kg worked out at 24%.
On the same count and under the same terms, the result for `O=C(c1ccco1)N1CCN(S(=O)(=O)c2cc(C(F)(F)F)cc(C(F)(F)F)c2)CC1` [Compound 1403] reads 22%; that for `O=S(=O)(c1cccc(C(F)(F)F)c1)N1CCNCC1` [Compound 1504], 26%.
Same read-out and setting: with `COc1ccc(Cl)cc1S(=O)(=O)N1CCN(CCO)CC1` [Compound 1263] the figure was 10%.
Turning to `O=C(c1ccco1)N1CCN(S(=O)(=O)c2ccc(Cl)c(C(F)(F)F)c2)CC1` [Compound 1402], the “ratio between the effective dose and the toxicity” value with mice [4] is given as “satisfactory”. The LD0 in the series with mice [3] (by oral route) is > 2 000 mg/kg.
For the compound `O=S(=O)(c1cc(C(F)(F)F)cc(C(F)(F)F)c1)N1CCNCC1` [Compound 1400], in the series with mice [4], the “ratio between the effective dose and the toxicity” value is listed as “satisfactory”. The same compound yielded an LD50 in series [2] of approximately 700 mg/kg. The same compound registered an LD0 with mice [3] (route not given) of approximately 250 mg/kg.
On to `COc1ccc(Cl)cc1S(=O)(=O)N1CCN(Cc2ccccc2)CC1` [Compound 1245], for which the “ratio between the effective dose and the toxicity” value with mice [4] is “satisfactory”. Also, the LD50 in series [2] (ip) was more than 2000 mg/kg. Moreover, in the series on mice [3] (mice, route IP), the LD0 is given as > 2 000 mg/kg and the LD100 was > 2 000 mg/kg.
